# Measured values from patent publication US20250296959A1, “B7-H3 TARGETING PEPTIDES AND CONSTRUCTS THEREOF” (Mariana Oncology Inc., priority 2024, published 2025).
# Positions of bridges follow the written chain, without caps; N, C: chain ends. Non-standard residues stand in square brackets, D forms with d. Residues, ends and D or L forms follow the SMILES beside them. *: point of attachment. DOTA = O=C(O)CN1CCN(CC(=O)O)CCN(CC(=O)*)CCN(CC(=O)O)CC1; Trp(5-F) = N[C@@H](Cc1c[nH]c2ccc(F)cc12)C(=O)O; aIle = CC[C@@H](C)[C@H](N)C(=O)O; Aad = N[C@@H](CCCC(=O)O)C(=O)O; hLeu = CC(C)CC[C@H](N)C(=O)O; NMeS = CN[C@@H](CO)C(=O)O; Nle = CCCC[C@H](N)C(=O)O; Dab = NCC[C@H](N)C(=O)O
# Molecular target: T1, human 4lg B7-H3 (Homo sapiens, UniProt Q5ZPR3)
# T1 sequence (Q5ZPR3 29-534): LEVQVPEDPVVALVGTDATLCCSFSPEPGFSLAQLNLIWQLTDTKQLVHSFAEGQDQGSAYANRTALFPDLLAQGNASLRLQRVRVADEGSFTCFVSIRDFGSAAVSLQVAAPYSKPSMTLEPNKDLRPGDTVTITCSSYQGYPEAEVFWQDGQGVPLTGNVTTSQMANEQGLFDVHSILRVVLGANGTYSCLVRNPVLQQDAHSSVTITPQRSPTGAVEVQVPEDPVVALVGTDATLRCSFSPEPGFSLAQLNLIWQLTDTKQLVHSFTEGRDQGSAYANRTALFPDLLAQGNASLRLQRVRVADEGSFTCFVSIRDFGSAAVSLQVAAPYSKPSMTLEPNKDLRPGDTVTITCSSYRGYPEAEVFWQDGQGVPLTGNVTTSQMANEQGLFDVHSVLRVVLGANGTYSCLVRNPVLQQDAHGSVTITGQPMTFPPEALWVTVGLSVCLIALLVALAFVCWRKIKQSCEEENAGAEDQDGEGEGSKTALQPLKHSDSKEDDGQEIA
# Test: Affinity determination by surface plasmon resonance (SPR) to 4Ig B7-H3
# Conditions: SPR KD—25° C., 4Ig B7-H3; 25° C. flow cell temperature
row,Compound,Kd
1,"CC[C@@H](C)[C@@H]1NC(=O)[C@@H](NC(=O)[C@H](Cc2ccc(O)cc2)NC(=O)[C@H](CCC(C)C)NC(C)=O)CSSC[C@@H](C(=O)N[C@@H](Cc2c[nH]c3ccccc23)C(=O)N[C@@H](Cc2ccccc2)C(=O)N[C@H](C(=O)N[C@H](CCCCNC(=O)CN2CCN(CC(=O)O)CCN(CC(=O)O)CCN(CC(=O)O)CC2)C(N)=O)[C@@H](C)O)NC(=O)[C@H](Cc2ccc(O)cc2)NC(=O)[C@H](C(C)C)NC(=O)[C@H](CC(=O)O)NC(=O)[C@H](Cc2ccc(O)cc2)NC(=O)[C@H](CCCCN)NC(=O)CNC1=O [compound 121, Ac-hLeu-Y-C-allolle-G-K-Y-D-V-Y-C-W-F-Thr-dLys(DOTA)-CONH2] (Ac-[hLeu]YC[aIle]GKYDVYCWFT[dK](DOTA)-NH2; disulfide 3-11)",1 to 10 nM
2,"CCCC[C@H](NC(C)=O)C(=O)N[C@@H](Cc1ccc(O)cc1)C(=O)N[C@H]1CSSC[C@@H](C(=O)N[C@@H](Cc2c[nH]c3ccccc23)C(=O)N[C@@H](Cc2ccccc2)C(=O)N[C@H](C(=O)N[C@H](CCCCNC(=O)CN2CCN(CC(=O)O)CCN(CC(=O)O)CCN(CC(=O)O)CC2)C(N)=O)[C@@H](C)O)NC(=O)[C@H](Cc2ccc(O)cc2)NC(=O)[C@H](C(C)C)NC(=O)[C@H](CCN)NC(=O)[C@H](Cc2ccc(O)cc2)NC(=O)[C@H](CCCCN)NC(=O)CNC(=O)[C@H](C(C)C)NC1=O [compound 552, Ac-Nle-Y-C-V-G-K-Y-Dab-V-Y-C-W-F-Thr-dLys(DOTA)-CONH2] (Ac-[Nle]YCVGKY[Dab]VYCWFT[dK](DOTA)-NH2; disulfide 3-11)",10 to 100 nM
3,"CC(=O)N[C@@H](CCC(C)C)C(=O)N[C@@H](Cc1ccc(O)cc1)C(=O)N[C@H]1CSSC[C@@H](C(=O)N[C@@H](Cc2c[nH]c3ccc(F)cc23)C(=O)N[C@@H](Cc2ccccc2)C(=O)N(C)[C@@H](CO)C(=O)N[C@H](CCCCNC(=O)CN2CCN(CC(=O)O)CCN(CC(=O)O)CCN(CC(=O)O)CC2)C(N)=O)NC(=O)[C@H](Cc2ccc(O)cc2)NC(=O)[C@H](C(C)C)NC(=O)[C@H](CC(=O)O)NC(=O)[C@H](Cc2ccc(O)cc2)NC(=O)[C@H](CCCCN)NC(=O)CNC(=O)[C@H](C(C)C)NC1=O [compound 148, Ac-hLeu-Y-C-V-G-K-Y-D-V-Y-C-5FW-F-NMeSer-dLys(DOTA)-CONH2] (Ac-[hLeu]YCVGKYDVYC[Trp(5-F)]F[NMeS][dK](DOTA)-NH2; disulfide 3-11)",< 1 nM

# Continued, values first:
row,Kd,Compound
1,10 to 100 nM,"CCCC[C@H](NC(C)=O)C(=O)N[C@@H](Cc1ccc(O)cc1)C(=O)N[C@H]1CSSC[C@@H](C(=O)N[C@@H](Cc2c[nH]c3ccccc23)C(=O)N[C@@H](Cc2ccccc2)C(=O)N[C@H](C(=O)N[C@H](CCCCNC(=O)CN2CCN(CC(=O)O)CCN(CC(=O)O)CCN(CC(=O)O)CC2)C(=O)O)[C@@H](C)O)NC(=O)[C@H](Cc2ccc(O)cc2)NC(=O)[C@H](C(C)C)NC(=O)[C@H](CC(=O)O)NC(=O)[C@H](Cc2ccc(O)cc2)NC(=O)[C@H](CCCC(=O)O)NC(=O)CNC(=O)[C@H](C(C)C)NC1=O [compound 103, Ac-Nle-Y-C-V-G-HomoGlu-Y-D-V-Y-C-W-F-Thr-dLys(DOTA)-COOH] (Ac-[Nle]YCVG[Aad]YDVYCWFT[dK](DOTA)-OH; disulfide 3-11)"
2,1 to 10 nM,"CCCC[C@H](NC(C)=O)C(=O)N[C@@H](Cc1ccc(O)cc1)C(=O)N[C@H]1CSSC[C@@H](C(=O)N[C@@H](Cc2c[nH]c3ccccc23)C(=O)N[C@@H](Cc2ccccc2)C(=O)N[C@@H](CCC(=O)O)C(N)=O)NC(=O)[C@H](Cc2ccc(O)cc2)NC(=O)[C@H](C(C)C)NC(=O)[C@H](CC(=O)O)NC(=O)[C@H](Cc2ccc(O)cc2)NC(=O)[C@H](CCCCN)NC(=O)CNC(=O)[C@H](C(C)C)NC1=O [compound 34, Ac-Nle-Y-C-V-G-K-Y-D-V-Y-C-W-F-E-CONH2] (Ac-[Nle]YCVGKYDVYCWFE-NH2; disulfide 3-11)"

# Same assay, conditions: SPR KD—37° C., 4Ig B7-H3; 37° C. flow cell temperature
row,Kd,Compound
1,10 to 100 nM,"CCCC[C@H](NC(C)=O)C(=O)N[C@@H](Cc1ccc(O)cc1)C(=O)N[C@H]1CSSC[C@@H](C(=O)N[C@@H](Cc2c[nH]c3ccccc23)C(=O)N[C@@H](Cc2ccccc2)C(=O)N[C@@H](CCC(=O)O)C(N)=O)NC(=O)[C@H](Cc2ccc(O)cc2)NC(=O)[C@H](C(C)C)NC(=O)[C@H](CC(=O)O)NC(=O)[C@H](Cc2ccc(O)cc2)NC(=O)[C@H](CCCCN)NC(=O)CNC(=O)[C@H](C(C)C)NC1=O [compound 34, Ac-Nle-Y-C-V-G-K-Y-D-V-Y-C-W-F-E-CONH2] (Ac-[Nle]YCVGKYDVYCWFE-NH2; disulfide 3-11)"
